Experimental data taken from US10450292B2, “Inhibitors of bacterial RNA polymerase: arylpropanoyl, arylpropenoyl, and arylcyclopropanecarboxyl phloroglucinols” (Rutgers, The State University of New Jersey, priority 2015, dated 2019).
≈ marks a conversion by molar mass, not a printed value. Like-named read-outs stand apart in the source and are kept apart here.

What was measured:
[1] = test system: Enterococcus faecalis ATCC 19433; test: Inhibition of bacterial growth in culture, spiral gradient endpoint assay (MIC); format: cell-based; conditions: Enterococcus faecalis, ATCC 19433 /, 16 h
Excerpt: J. Microbiol. Meths. […] Int. J. Exp. Clin. Chemother. […] Adv.

[2] = test system: Escherichia coli D21f2tolC; test: microbe, parasite or virus in culture; conditions: 16 h
[3] = test system: Staphylococcus aureus ATCC 12600; test: Inhibition of bacterial growth in culture, spiral gradient endpoint assay (MIC); conditions: Staphylococcus aureus, ATCC12600, 16 h
[4] = read-out: MIC E. faecalis, Mueller-Hinton II agar, 16 h at 37° C.
[5] = read-out: MIC E. coli D21f2tolC, Mueller-Hinton II agar, 16 h at 37° C.
[6] = read-out: MIC S. aureus 12600, Mueller-Hinton II agar, 16 h at 37° C.

O=C(C=Cc1ccc(Oc2ccc(Cl)cc2)cc1)c1c(O)cc(O)cc1O (mixture of isomers) [Example 5, (E)-3-(4-(4-chlorophenoxy)phenyl)-1-(2,4,6-trihydroxyphenyl)prop-2-en-1-one]
MIC [1, 4]: 6 µg/mL | MIC [2, 5]: 1.6 µg/mL | MIC [3, 6]: 2.6 µg/mL

CC(Cc1ccc(Cl)cc1)C(=O)c1c(O)cc(O)cc1O (racemic) [Example 30, 3-(4-chlorophenyl)-2-methyl-1-(2,4,6-trihydroxyphenyl)propan-1-one]
MIC [1, 4]: 17 µg/mL (≈ 55.4 µM) | MIC [2, 5]: 6.5 µg/mL (≈ 21.2 µM) | MIC [3, 6]: 14 µg/mL (≈ 45.6 µM)

Cc1ccc(CCC(=O)c2c(O)cc(O)cc2O)s1 [Example 1, 3-(5-methylthiophen-2-yl)-1-(2,4,6-trihydroxyphenyl)propan-1-one]
MIC [1, 4]: > 40 µg/mL | MIC [2, 5]: 24 µg/mL (≈ 86.2 µM) | MIC [3, 6]: 32 µg/mL (≈ 115 µM)

O=C(c1c(O)cc(O)cc1O)C1CC1c1ccc(Cl)cc1 (centres unmarked) [Example 2, (2-(4-chlorophenyl)cyclopropyl)(2,4,6-trihydroxyphenyl)methanone]
MIC [1, 4]: 12 µg/mL (≈ 39.4 µM) | MIC [2, 5]: 9.3 µg/mL (≈ 30.5 µM) | MIC [3, 6]: 12 µg/mL (≈ 39.4 µM)

O=C(CCc1ccc(Oc2cccc(Cl)c2)cc1)c1c(O)cc(O)cc1O [Example 3, 3-(4-(3-chlorophenoxy)phenyl)-1-(2,4,6-trihydroxyphenyl)propan-1-one]
MIC [1, 4]: 3.7 µg/mL (≈ 9.62 µM) | MIC [2, 5]: 1.9 µg/mL (≈ 4.94 µM) | MIC [3, 6]: 1.9 µg/mL (≈ 4.94 µM)

O=C(CCc1ccc(Oc2ccc(Cl)cc2)cc1)c1c(O)cc(O)cc1O [Example 4, 3-(4-(4-chlorophenoxy)phenyl)-1-(2,4,6-trihydroxyphenyl)propan-1-one]
MIC ([1]; read-out: MIC E. faecalis): 3.2 µg/mL (≈ 8.32 µM) | MIC ([2]; read-out: MIC E. coli D21f2tolC): 1.5 µg/mL (≈ 3.9 µM) | MIC ([3]; read-out: MIC S. aureus 12600): 2.4 µg/mL (≈ 6.24 µM)

O=C(/C=C/c1ccc(Oc2ccccn2)cc1)c1c(O)cc(O)cc1O [Example 6, (E)-3-(4-(pyridin-2-yloxy)phenyl)-1-(2,4,6-trihydroxyphenyl)prop-2-en-1-one]
MIC [1, 4]: > 40 µg/mL | MIC [2, 5]: > 40 µg/mL | MIC [3, 6]: > 40 µg/mL

O=C(/C=C/c1ccc(OCc2ccccc2)cc1)c1c(O)cc(O)cc1O [Example 7]
MIC [1, 4]: > 40 µg/mL | MIC [2, 5]: 16 µg/mL (≈ 44.2 µM) | MIC [3, 6]: > 40 µg/mL

O=C(/C=C/c1ccc(Oc2ccccc2)cc1)c1c(O)cc(O)cc1O [Example 8, (E)-3-(4-phenoxyphenyl)-1-(2,4,6-trihydroxyphenyl)prop-2-en-1-one]
MIC [1, 4]: 31 µg/mL (≈ 89 µM) | MIC [2, 5]: 3.8 µg/mL (≈ 10.9 µM) | MIC [3, 6]: 6.5 µg/mL (≈ 18.7 µM)

O=C(/C=C/c1ccc(C(F)(F)F)cc1C(F)(F)F)c1c(O)cc(O)cc1O [Example 9, (E)-3-(2,4-bis(trifluoromethyl)phenyl)-1-(2,4,6-trihydroxyphenyl)prop-2-en-1-one]
MIC [1, 4]: 16 µg/mL (≈ 40.8 µM) | MIC [2, 5]: 8 µg/mL (≈ 20.4 µM) | MIC [3, 6]: 13 µg/mL (≈ 33.1 µM)

O=C(CCc1ccc(Oc2ccc(F)cc2)cc1)c1c(O)cc(O)cc1O [Example 10, 3-(4-(4-fluorophenoxy)phenyl)-1-(2,4,6-trihydroxyphenyl)propan-1-one]
MIC [1, 4]: 5.1 µg/mL (≈ 13.8 µM) | MIC [2, 5]: 1.5 µg/mL (≈ 4.07 µM) | MIC [3, 6]: 3.1 µg/mL (≈ 8.42 µM)

O=C(/C=C/c1ccc(Oc2ccc(F)cc2)cc1)c1c(O)cc(O)cc1O [Example 11, (E)-3-(4-(4-fluorophenoxy)phenyl)-1-(2,4,6-trihydroxyphenyl)prop-2-en-1-one]
MIC [1, 4]: > 40 µg/mL | MIC [2, 5]: 5.9 µg/mL (≈ 16.1 µM) | MIC [3, 6]: 17 µg/mL (≈ 46.4 µM)

O=C(c1c(O)cc(O)cc1O)C1CC1c1ccc(Oc2ccc(F)cc2)cc1 (centres unmarked) [Example 12, (2-(4-(4-fluorophenoxy)phenyl)cyclopropyl)(2,4,6-trihydroxyphenyl) methanone]
MIC [1, 4]: 4 µg/mL (≈ 10.5 µM) | MIC [2, 5]: 1.5 µg/mL (≈ 3.94 µM) | MIC [3, 6]: 3.1 µg/mL (≈ 8.15 µM)

O=C(c1c(O)cc(O)cc1O)C1CC1c1ccc(Oc2ccc(Cl)cc2)cc1 (centres unmarked) [Example 13, (2-(4-(4-chlorophenoxy)phenyl)cyclopropyl)(2,4,6-trihydroxyphenyl)methanone]
MIC [1, 4]: 4.8 µg/mL (≈ 12.1 µM) | MIC [2, 5]: 2.1 µg/mL (≈ 5.29 µM) | MIC [3, 6]: 4.3 µg/mL (≈ 10.8 µM)

O=C(/C=C/c1ccc(C(F)(F)F)cc1)c1c(O)cc(O)cc1O [Example 14, (E)-3-(4-(trifluoromethyl)phenyl)-1-(2,4,6-trihydroxyphenyl)prop-2-en-1-one]
MIC [1, 4]: 32 µg/mL (≈ 98.7 µM) | MIC [2, 5]: 20 µg/mL (≈ 61.7 µM) | MIC [3, 6]: 32 µg/mL (≈ 98.7 µM)

O=C(/C=C/c1ccc(Oc2ccccc2)cc1C(F)(F)F)c1c(O)cc(O)cc1O [Example 15, (E)-3-(4-phenoxy-2-(trifluoromethyl)phenyl)-1-(2,4,6-trihydroxyphenyl)prop-2-en-1-one]
MIC [1, 4]: 3.6 µg/mL (≈ 8.65 µM) | MIC [2, 5]: 1.8 µg/mL (≈ 4.32 µM) | MIC [3, 6]: 3.2 µg/mL (≈ 7.69 µM)

O=C(CCc1ccc(Oc2ccccc2)cc1C(F)(F)F)c1c(O)cc(O)cc1O [Example 16, 3-(4-phenoxy-2-(trifluoromethyl)phenyl)-1-(2,4,6-trihydroxyphenyl)propan-1-one]
MIC [1, 4]: 1.8 µg/mL (≈ 4.3 µM) | MIC [2, 5]: 1.3 µg/mL (≈ 3.11 µM) | MIC [3, 6]: 1.1 µg/mL (≈ 2.63 µM)

O=C(/C=C/c1ccc(Oc2ccc(Cl)cc2)cc1C(F)(F)F)c1c(O)cc(O)cc1O [Example 17, (E)-3-(4-(4-chlorophenoxy)-2-(trifluoromethyl)phenyl)-1-(2,4,6-trihydroxyphenyl)prop-2-en-1-one]
MIC [1, 4]: 1.9 µg/mL (≈ 4.21 µM) | MIC [2, 5]: 2.5 µg/mL (≈ 5.55 µM) | MIC [3, 6]: 1.8 µg/mL (≈ 3.99 µM)

Cc1cc(Oc2ccc(Cl)cc2)ccc1/C=C/C(=O)c1c(O)cc(O)cc1O [Example 18, (E)-3-(4-(4-chlorophenoxy)-2-methylphenyl)-1-(2,4,6-trihydroxyphenyl)prop-2-en-1-one]
MIC [1, 4]: 2.4 µg/mL (≈ 6.05 µM) | MIC [2, 5]: 1.1 µg/mL (≈ 2.77 µM) | MIC [3, 6]: 1.3 µg/mL (≈ 3.28 µM)

Cc1ccc(C2CC2C(=O)c2c(O)cc(O)cc2O)cc1 (centres unmarked) [Example 19, (2-(p-tolyl)cyclopropyl)(2,4,6-trihydroxyphenyl)methanone]
MIC [1, 4]: > 40 µg/mL | MIC [2, 5]: 13 µg/mL (≈ 45.7 µM) | MIC [3, 6]: 20 µg/mL (≈ 70.3 µM)

Cc1ccc(C2CC2C(=O)c2c(O)cc(O)cc2O)c(C)c1 (centres unmarked) [Example 20, (2-(2,4-dimethylphenyl)cyclopropyl)(2,4,6-trihydroxyphenyl)methanone]
MIC [1, 4]: 2.4 µg/mL (≈ 8.04 µM) | MIC [2, 5]: 1.7 µg/mL (≈ 5.7 µM) | MIC [3, 6]: 2.1 µg/mL (≈ 7.04 µM)

CCOc1ccc(C2CC2C(=O)c2c(O)cc(O)cc2O)cc1 (centres unmarked) [Example 21, (2-(4-ethoxyphenyl)cyclopropyl)(2,4,6-trihydroxyphenyl)methanone]
MIC [1, 4]: > 40 µg/mL | MIC [2, 5]: 20 µg/mL (≈ 63.6 µM) | MIC [3, 6]: 16 µg/mL (≈ 50.9 µM)

O=C(c1c(O)cc(O)cc1O)C1CC1c1ccc(Oc2ccccc2)cc1 (centres unmarked) [Example 22, (2-(4-phenoxyphenyl)cyclopropyl)(2,4,6-trihydroxyphenyl) methanone]
MIC [1, 4]: 1.3 µg/mL (≈ 3.59 µM) | MIC [2, 5]: 0.49 µg/mL (≈ 1.35 µM) | MIC [3, 6]: 1 µg/mL (≈ 2.76 µM)

O=C(CCc1ccc(Oc2ccc(Cl)cc2)cc1C(F)(F)F)c1c(O)cc(O)cc1O [Example 23, 3-(4-(4-chlorophenoxy)-2-(trifluoromethyl)phenyl)-1-(2,4,6-trihydroxyphenyl)propan-1-one]
MIC [1, 4]: 1.7 µg/mL (≈ 3.75 µM) | MIC [2, 5]: 1.7 µg/mL (≈ 3.75 µM) | MIC [3, 6]: 1.1 µg/mL (≈ 2.43 µM)

Cc1cc(Oc2ccc(Cl)cc2)ccc1CCC(=O)c1c(O)cc(O)cc1O [Example 24, 3-(4-(4-chlorophenoxy)-2-methylphenyl)-1-(2,4,6-trihydroxyphenyl)propan-1-one]
MIC [1, 4]: 3 µg/mL (≈ 7.52 µM) | MIC [2, 5]: 1.1 µg/mL (≈ 2.76 µM) | MIC [3, 6]: 1.8 µg/mL (≈ 4.51 µM)

O=C(c1c(O)cc(O)cc1O)C1CC1c1ccc(Oc2ccc(Cl)cc2)cc1C(F)(F)F (centres unmarked) [Example 25, (2-(4-(4-chlorophenoxy)-2-(trifluoromethyl)phenyl)cyclopropyl)(2,4,6-trihydroxyphenyl)methanone]
MIC [1, 4]: 1.7 µg/mL (≈ 3.66 µM) | MIC [2, 5]: 1.5 µg/mL (≈ 3.23 µM) | MIC [3, 6]: 1.7 µg/mL (≈ 3.66 µM)

Cc1cc(Oc2ccc(Cl)cc2)ccc1C1CC1C(=O)c1c(O)cc(O)cc1O (centres unmarked) [Example 26, (2-(4-(4-chlorophenoxy)-2-methylphenyl)cyclopropyl)(2,4,6-trihydroxyphenyl)methanone]
MIC [1, 4]: 2.1 µg/mL (≈ 5.11 µM) | MIC [2, 5]: 1.4 µg/mL (≈ 3.41 µM) | MIC [3, 6]: 1.4 µg/mL (≈ 3.41 µM)

Cc1cc(Oc2ccc(F)cc2)ccc1/C=C/C(=O)c1c(O)cc(O)cc1O [Example 27, (E)-3-(4-(4-fluorophenoxy)-2-methylphenyl)-1-(2,4,6-trihydroxyphenyl)prop-2-en-1-one]
MIC [1, 4]: 17 µg/mL (≈ 44.7 µM) | MIC [2, 5]: 2.4 µg/mL (≈ 6.31 µM) | MIC [3, 6]: 5.1 µg/mL (≈ 13.4 µM)

O=C(/C=C/c1ccc(Oc2ccc(C(F)(F)F)cc2)cc1)c1c(O)cc(O)cc1O [Example 28, (E)-3-(4-(4-(trifluoromethyl)phenoxy)phenyl)-1-(2,4,6-trihydroxyphenyl)prop-2-en-1-one]
MIC [1, 4]: 6.5 µg/mL (≈ 15.6 µM) | MIC [2, 5]: 2.4 µg/mL (≈ 5.76 µM) | MIC [3, 6]: 3.1 µg/mL (≈ 7.45 µM)

O=C(c1c(O)cc(O)cc1O)C1CC1c1ccc(Oc2ccc(Cl)cc2Cl)cc1 (centres unmarked) [Example 29, (2-(4-(2,4-dichlorophenoxy)phenyl)cyclopropyl)(2,4,6-trihydroxyphenyl) methanone]
MIC [1, 4]: 2.4 µg/mL (≈ 5.56 µM) | MIC [2, 5]: 1.5 µg/mL (≈ 3.48 µM) | MIC [3, 6]: 1.5 µg/mL (≈ 3.48 µM)

Cc1cc(Oc2ccccc2)ccc1/C=C/C(=O)c1c(O)cc(O)cc1O [Example 31, (E)-3-(2-methyl-4-phenoxyphenyl)-1-(2,4,6-trihydroxyphenyl)prop-2-en-1-one]
MIC [1, 4]: 9.6 µg/mL (≈ 26.5 µM) | MIC [2, 5]: 1.4 µg/mL (≈ 3.86 µM) | MIC [3, 6]: 5.8 µg/mL (≈ 16 µM)

O=C(/C=C/c1ccc(Oc2ccc(F)cc2)cc1C(F)(F)F)c1c(O)cc(O)cc1O [Example 32, (E)-3-(4-(4-fluorophenoxy)-2-(trifluoromethyl)phenyl)-1-(2,4,6-trihydroxyphenyl)prop-2-en-1-one]
MIC [1, 4]: 5.7 µg/mL (≈ 13.1 µM) | MIC [2, 5]: 2.1 µg/mL (≈ 4.83 µM) | MIC [3, 6]: 3.5 µg/mL (≈ 8.06 µM)

Cc1cc(Oc2ccccc2)ccc1CCC(=O)c1c(O)cc(O)cc1O [Example 33, 3-(2-methyl-4-phenoxyphenyl)-1-(2,4,6-trihydroxyphenyl)propan-1-one]
MIC [1, 4]: 7.5 µg/mL (≈ 20.6 µM) | MIC [2, 5]: 1.6 µg/mL (≈ 4.39 µM) | MIC [3, 6]: 4.6 µg/mL (≈ 12.6 µM)

CCCc1c(O)cc(O)c(C(=O)/C=C/c2ccc(Oc3ccc(F)cc3)cc2)c1O [Example 67, (E)-3-(4-(4-fluorophenoxy)phenyl)-1-(2,4,6-trihydroxy-3-propylphenyl)prop-2-en-1-one]
MIC [1, 4]: 0.55 µg/mL (≈ 1.35 µM) | MIC [2, 5]: 0.72 µg/mL (≈ 1.76 µM)
